For test [1], the system named is Human colon cancer KM12-HX cells. Put plainly: Antitumor effect against human colon cancer KM12-HX cells (orthotopic transplant in nude mice). The settings on record: 9 doses (days 3-7 and 10-13), tumor weight on day 14, Balb/c nude mice. It counts as in vivo, mouse. The text has this: Human colon cancer KM12-HX cells were orthotopically transplanted into the cecum of nude mice according to the method of Fu et al. [X. Fu et al., Anticancer Res., 12 (1992)] using Balb/c nude mice (females, 7 weeks old) in groups of 10 each.
Specifically, an incision was made into the left lower abdominal region of each mouse under Abacin anesthesia, after which a thin section of tumor measuring 5 mm on a side was sutured to the cecum using absorbable surgical sutures to perform orthotopic transplant. The incision was sutured using absorbable surgical sutures and the mice were warmed and promptly awakened from anesthesia.
The test compound was suspended in sterilized distilled water containing 0.5% w/v carboxymethyl cellulose (CMC) and administered orally in a total of 9 doses consisting of one dose per day from days 3 to 7 after the tumor cell transplantation and from days 10 to 13 after the transplantation.
Antitumor activity was assessed according to the following equation to determine the tumor weight inhibitory rate (GI %) on day 14 after the transplantation. GI(%)=(1−Vt′/Vc′)×100 • Vt′: Mean tumor weight on day 14 in the group administered the test compound • Vc′: Mean tumor weight on day 14 in an untreated control group

Test [2] has as its system mouse malignant melanoma B16-BL6 cells. Put plainly: Inhibitory effect on lung metastasis of mouse malignant melanoma B16-BL6 cells. The following applies: 1 mg/kg per day oral for five days, colonies counted on 10th day, C57BL/6 mice. It counts as in vivo. The protocol:
Groups of mice, each group containing ten C57BL/6 mice (female, age: 8 weeks) were transplanted intravenously into the tail vein with 3×10^4 of mouse malignant melanoma B16-BL6 cells.
The mice were, when necessary, administered intravenously into the tail vein with a bacterial lipopolysaccharide (LPS) in an amount of 3 μg each within one hour before transplantation of the melanoma cells so as to accelerate lung metastasis of the melanoma [M. J. Anasagasti et al., J. Natl. Cancer Research, 89, 645-651 (1997).]
As test compounds, Compound No. 2-118, a compound of formula (IV), a compound of formula (V) and indomethacin were employed, and each was suspended in sterilized distilled water containing 0.5% w/v of carboxymethyl cellulose (CMC), and the suspensions were orally administered at a dose of 1 mg/kg per day for five days starting from the day of the melanoma cell transplantation.
Inhibitory activities on lung metastasis of the melanoma cells were evaluated in terms of the lung metastasis inhibitory rate (LMI %) by counting the number of metastatic colonies in the lung on the 10th day after intravenous transplantation of the mouse malignant melanoma B16-BL6 cells at the tail. LMI(%)=(1−Nt/Nc)×100 • Nt: Numbers of lung metastatic colonies on the 10th day in groups administered with the test compounds; and • Nc: Numbers of lung metastatic colonies on the 10th day in control groups which were not administered with the test compounds.

The test system of test [3] is mouse sarcoma S-180 cells. Put plainly: Antitumor effect against mouse sarcoma S-180 cells. In kind it is in vivo. The settings on record: 1 mg/kg oral once per day for 5 days; tumor volume on day 7; Balb/c nude mice. How it is done:
1×10^6 mouse sarcoma S-180 cells were transplanted subcutaneously in Balb/c nude mice (females, 8 weeks old) in groups of 10 each.
The test compound, Compound No. 2-118, was suspended in sterilized distilled water containing 0.5% w/v carboxymethyl cellulose (CMC) and administered orally once per day for 5 days starting on the day the tumor cells were transplanted.
Antitumor activity was assessed according to the following equation to determine the tumor growth inhibitory rate (GI %) on day 7 after the transplantation. GI(%)=(1−Vt/Vc)×100 • Vt: Mean tumor volume on day 7 in a group administered test compound (*) • Vc: Mean tumor volume on day 7 in an untreated control group (*) • *: Tumor volume is defined as ½×[tumor long axis]×[tumor short axis]^2

Turning to `Cc1cc(-c2ccc(C)c(C)c2)n(-c2ccc(S(N)(=O)=O)cc2)c1` [Compound 2-118, 2-(3,4-dimethylphenyl)-4-methyl-1-(4-sulfamoylphenyl)pyrrole], the “GI(%) tumor weight inhibitory rate” value in test [1] (0.3 mg/kg oral) stood at 12%; in test [1] (1 mg/kg oral), 35%; in test [1] (3 mg/kg oral) it was 45%; in test [1] (10 mg/kg oral) it was 59%. The “LMI (%) lung metastasis inhibitory rate” value in test [2] (LPS 3 μg i.v. before transplantation) is 34%; in test [2] (no LPS administration), 64%. For the same compound, in test [3], the “GI (%) tumor growth inhibitory rate” value turned out to be 54%.
